According to US11292787B2, “Five-membered-fused-six-membered aza-aromatic ring compound, preparation method thereof, pharmaceutical composition and application thereof” (XIAMEN UNIVERSITY, priority 2017, dated 2022):
Entries after “also recorded” stand apart in the source; their conditions may differ.

How the values were obtained:
K-RAS-G12V = molecular target: T1, K-RAS-G12V (Homo sapiens, UniProt P01116, G12V); assay: Degradation of overexpressed K-RAS-G12V protein in 293T cells (FIG. 1a); assay type: cell-based; details: 293T cells overexpressing K-RAS-G12V
T1 construct: expressed in transfected cells; host or cells: 293T
Protocol: (§1) Inhibitory activity of compounds on K-RAS was evaluated by the degradation rate of protein level of administration group relative to control group (Cell Rep 2014, 7, 871-882).

SW620 xenograft = assay: Nude mouse SW620 xenograft tumor experiment; assay type: in vivo, nude mice; details: tail vein, 40 mg/kg, 80 mg/kg per day, 10 days
Protocol: (§2) The specific method was as follows:
1. 4-5 weeks old nude mice were subcutaneously injected with a SW620 cell suspension with a cell number controlled at about 5×10^6.
2. The tumor-bearing condition was observed after two to three days, and the mice were administered when the tumor volume was about 150 mm^3.
4. The mice were injected intravenously regularly with drug or control solvent every day, and the daily tumor volume was recorded.
5. The mice were continuously administered for 10 days, and the changes in tumor volume of the drug-administered group and the control group were observed.
6. 10 days later, eyeball blood was taken from all mice, and blood samples were kept for subsequent testing. After the mice were killed, the subcutaneously growing tumors were completely taken out, the tumor weights were recorded, and the tumors were stored in liquid nitrogen for subsequent testing.

K-Ras protein = molecular target: T2, K-Ras protein (Homo sapiens, UniProt P01116, G12V); assay: K-Ras protein degradation rate by Western blot in SW-620 cells; assay type: cell-based; details: for percent K-Ras protein degradation (single point) at 10 µM: SW-620 cells, 24 h, Western blot, relative to DMSO control, read-out: Degradation rate of compounds at 10 μM on Ras protein (%)
T2 construct: in SW620 cells, compound I-a-1 can effectively enhance the degradation of endogenous K-RAS-G12V proteins; endogenous in cells; host or cells: SW-620
Protocol: as §1, §2
1. Cell plating: SW-620 cells in logarithmic growth phase were inoculated into a 24-well plate at 2×10^4/well, and cultured in a 37° C., 5% CO2 incubator.
2. Administering drug to cells: after 24 h of culture, various drug stocks […]; the original solution in the 24-well plate was discarded, to which was added the obtained drug solution, with the DMSO group as the blank control; after the drug solution was added, the 24-well plate was transferred to the 37° C. CO2 incubator to continue the culture.
3. Detection of K-Ras protein level: after 24 h of administration and culture, the liquid in the well was discarded, the cells were routinely collected, and rinsed twice with 1×PBS, a cell lysate was added to extract the total cellular protein, and the protein concentration was determined by BCA method. 30 μg of the protein sample was taken for SDS-polyacrylamide gel electrophoretic transmembrane, the membrane was blocked sequentially, incubated with K-Ras antibody (1:1000) and internal reference antibody β-actin (1:2000) respectively overnight at 4° C., rinsed with TBST for 5 min×3 times, then incubated with the addition of the corresponding horseradish peroxidase-labeled secondary antibody (1:5000) for 1-2 h, and rinsed with TBST for 5 min×3 times. Finally, chemiluminescence image was acquired using Image Lab software.
4. Calculation of single-point K-Ras protein degradation rate: quantitative and calibration analysis of K-Ras and β-actin were conducted using Image-Lab software, and then the intracellular K-Ras degradation rate was calculated according to the following formula: single-point K-Ras protein degradation rate (%)=(control group−administration group)/control group×100%. The drug with degradation rate ≥20% was selected for soft agar experiment.

MCF-7 cells = assay: Soft agar colony formation, MCF-7 cells (K-RAS-WT); assay type: cell-based; details: K-RAS-WT genetic background, FIG. 2a
Protocol: as §2
(§3) 1) 1% agar was formulated, and autoclaved. 1% agar was heated and melted in a boiling water bath before use, and then cooled in a 40° C. water bath (by holding in the bath for at least 30 minutes, the agar was cooled to a temperature of 40° C.); at the same time, 2×DMEM/FBS was placed in a warm bath. 2) A bottom agar with 0.5% agar was prepared by mixing 1% agar with 2×DMEM/FBS in a sterile tube at a volume ratio of 1:1. The mixed solution was added to a 6-well plate rapidly at 1.5 ml per well, shaked slightly, and placed at room temperature for solidification (after solidification, the bottom agar could be stored at 4° C. for 1 week. Before use, it was placed at room temperature for at least 30 minutes to return to room temperature).
(§4) 1) A mixed solution with a final concentration of 0.3% agar+1×DMEM/FBS was formulated in a sterile tube using 1% agar, 2×DMEM/FBS and sterile water at a temperature of 40° C. The prepared mixed solution was placed in a 40° C. water bath for use.
(§5) 2) The cells were trypsinized and counted. The cell density was adjusted according to the needs of the experiment. […]

HT-29 cells = assay: Soft agar colony formation, HT-29 cells (RAF mutation); assay type: cell-based; details: RAF mutation genetic background, FIG. 2c
Protocol: as §2, §3, §4, §5

SW620 cells = assay: Soft agar colony formation, SW620 cells (K-RAS-G12V); assay type: cell-based; details: K-RAS-G12V genetic background, FIG. 2b
Protocol: as §2, §3, §4, §5

| SMILES | degradation of exogenous overexpressed RAS (K-RAS-G12V) protein (K-RAS-G12V) | tumor growth (tumor volume) (SW620 xenograft; FIG. 3a) | final tumor weight (SW620 xenograft; FIG. 3b) | percent K-Ras protein degradation (single point) at 10 µM (K-Ras protein) | degradation of endogenous K-RAS-G12V protein (K-Ras protein; SW620 cells, FIG. 1b) | colony formation on soft agar (MCF-7 cells) | colony formation on soft agar (HT-29 cells) | colony formation on soft agar (SW620 cells) |
| --- | --- | --- | --- | --- | --- | --- | --- | --- |
| O=C(NCc1c(F)cccc1Cl)c1csc(-c2n[nH]c3ccccc23)c1 [I-a-1] | can effectively enhance the degradation of exogenous overexpressed RAS proteins and has good concentration dependence | could effectively inhibit the growth of cancer cells with RAS positive genetic background in nude mice; also recorded: can effectively inhibit the increase of tumor volume and has good dose dependence | obviously smaller than that of the control group | 52% | can effectively enhance the degradation of endogenous K-RAS-G12V proteins and has good concentration dependence | can effectively inhibit colony formation of the cells | does not inhibit colony formation of the cells | – |
| O=C(NCc1c(F)cccc1Cl)c1csc(-c2n[nH]c3ncccc23)c1 [III-a-1] | – | – | – | 21% | – | – | – | can effectively inhibit colony formation of the cells |
